Source: ChEMBL document CHEMBL1157234, “Isoflavonoids with antiestrogenic activity from Millettia pachycarpa” (J Nat Prod, 2006)

Biological target: T1, Estrogen receptor (Homo sapiens, UniProt P03372)
T1 sequence (P03372 whole entry): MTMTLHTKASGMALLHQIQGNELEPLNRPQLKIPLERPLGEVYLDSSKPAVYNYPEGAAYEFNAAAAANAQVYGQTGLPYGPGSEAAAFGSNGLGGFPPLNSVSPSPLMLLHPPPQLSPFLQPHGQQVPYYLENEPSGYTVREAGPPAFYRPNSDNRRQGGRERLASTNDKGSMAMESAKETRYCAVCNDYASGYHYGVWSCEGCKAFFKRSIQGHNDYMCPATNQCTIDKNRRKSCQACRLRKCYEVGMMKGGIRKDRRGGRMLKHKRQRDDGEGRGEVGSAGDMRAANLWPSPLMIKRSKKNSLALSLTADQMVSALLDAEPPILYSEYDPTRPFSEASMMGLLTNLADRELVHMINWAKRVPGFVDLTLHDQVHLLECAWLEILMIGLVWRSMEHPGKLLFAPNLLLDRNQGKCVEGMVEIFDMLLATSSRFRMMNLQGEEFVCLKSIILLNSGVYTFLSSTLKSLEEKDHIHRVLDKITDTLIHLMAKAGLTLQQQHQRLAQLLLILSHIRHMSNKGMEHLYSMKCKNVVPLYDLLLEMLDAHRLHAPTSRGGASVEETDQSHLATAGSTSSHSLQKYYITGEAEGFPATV
Test: Antiestrogenic activity at estrogen receptor alpha expressed in yeast cells assessed as inhibition of 17-beta-estradiol-induced beta-galactosidase activity by two hybrid assay
Type: cell-based

Row | Structure (SMILES) | IC50
1 | C=C(C)C(O)Cc1c(O)c(CC=C(C)C)c(O)c2c(=O)c(-c3ccc(O)c(O)c3)coc12 (racemic) | 18 µM
2 | CC(C)=CCc1c2c(c3occ(-c4ccc(O)c(O)c4)c(=O)c3c1O)CC(C(C)(C)O)O2 (racemic) [(+/-)-FUROWANIN B] | 13 µM
3 | C=C(C)C(O)Cc1c(O)c(CC=C(C)C)c2occ(-c3ccc(O)c(O)c3)c(=O)c2c1O (racemic) [MILLEWANIN G] | 29 µM
